Assay results reported in patent US6642201B1, “Use of a dipeptide for stimulating repair processes” (priority 1998, dated 2003).
Marks after values point to notes of the source that are not given here. Where a SMILES comes first, the peptide text is derived from it.

Columns and labels:
[1] = system: purulent incised crushed wounds of the femural soft tissues; assay: Healing of purulent incised crushed wounds of the soft tissues; type: in vivo, shinshilla rabbits; design: key: 1 point - absent; 2 points - single (traces); 3 points - few; 4 points - diffuse (moderately); 5 points - many-,; 6 points - very many; conditions: rabbits, 1 μkg i.m. daily 5 days
From the text: The efficacy of L-Lys-L-Glu dipeptide was estimated on the model of purulent incised crushed wounds of the femural soft tissues in shinshilla rabbits of both sexes with body weight 2-3 kg. Therefore, the rabbits underwent shaving in the area of femural soft tissues with subsequent incision 5 cm long and 2 sm deep. Soft tissues (muscles, subcutaneous fat) were crushed with Kocher 's forcepts and infected with the pathogenic mixture Staphylococcus aureus, strain 186. Afterwards, the wound was sutured. In 72 hours the sutures were lifted; and the wound was treated with 3% solution of hydrogen peroxide.
The animals of experimental group were injected intramuscularly every day for five days with dipeptide L-Lys-L-Glu in a single dose 1 μkg per injection. Control rabbits were injected with sodium chloride solution according to the same scheme. In the process of treatment the wounds were treated with antiseptic remedies for external use.
The estimation of L-Lys-L-Glu dipeptide efficacy in the dynamics of the inflammatory process regression was based on the terms of crust rejection and wound clearance from the pyo-necrotic mass, and appearance of the granular tissue in the wound and beginning of edge epithelization. […] The activity of tissue enzymes was also estimated (5,6,7).

[2] = system: inflammation of salivary glands and sialolithic disease; assay: Clinical treatment of inflammation of salivary glands and sialolithic disease; type: in vivo, patients; conditions: 1 μkg i.m. daily for 5 days
From the text: 45 patients were being observed. Of these, 27 people had inflammations of the salivary glands, 4 of whom had parotitis. 18 people suffered sialolithic disease of the submandibular gland. The average age of the patients was 35-40. All the patients with the sialolithic disease had the stones extracted. 30 patients (15 of them had inflammation of the salivary gland and the other 15 had sialolithic disease) underwent daily intramuscular injections of L-Lys-L-Glu dipeptide 1 μkg. for 5 days.
The patients of the control group underwent standard treatment: antibacterial, desensitization therapy, iodine-dimexid dressings, physical therapy (ultrasonics, 5-10% potassium iodide electrotherapy on the gland area), local treatment (washing the glands with the solution of antiseptics and antibiotics).

[3] = patients with sialolithic disease

## NCCCC[C@H](N)C(=O)N[C@@H](CCC(=O)O)C(=O)O [L-Lys-L-Glu dipeptide, L-lysil-L-glutamic acid] (H-Lys-Glu-OH)
[1]; day 6
  Alcaline phosphotase in leukocytes: 6*
  Alcaline phosphotase in vessels: 6*
[1]; day 14
  Acid phosphotase in histiocytes: 6*
  Alcaline phosphotase in leukocytes: 6*
[1]; day 28
  Alcaline phosphotase in leukocytes: 6
  Alcaline phosphotase in vessels: 4
[1]; day 40
  Alcaline phosphotase in vessels: 4*
[2]; patients with inflammation of the salivary gland
  pains in the gland and discharge of pus: on the fourth-fifth day after the treatment, stopped having pains in the gland and the discharge of pus from the gland ducts
[2]; [3]
  discharge of pus from the gland ducts: stopped having the discharge of pus from the gland ducts
  swelling and infiltration of soft tissues and mucous membrane of the mouth cavity: resolved on the third fourth day after the operation
[2]; patients
  period of treatment: shortened the period of treatment
